Reference: US20200247815A1, “PYRAZOLYL-CONTAINING TRICYCLIC DERIVATIVE, PREPARATION METHOD THEREFOR AND USE THEREOF” (Jiangsu Hansoh Pharmaceutical Group Co., Ltd., priority 2017, published 2020)

How the values were obtained:
[1] = conventional solvents, background statement; cited from earlier work
ERK-1 kinase = target: T1, ERK-1 kinase (Homo sapiens, UniProt P27361); assay: Inhibition of ERK-1 kinase activity (LANCE Ultra TR-FRET); type: biochemical; conditions: ERK1 enzyme 0.4 nM, ATP 38.15 μM
T1 construct: purchased Invitrogen PV3311
T1 sequence (P27361 whole entry): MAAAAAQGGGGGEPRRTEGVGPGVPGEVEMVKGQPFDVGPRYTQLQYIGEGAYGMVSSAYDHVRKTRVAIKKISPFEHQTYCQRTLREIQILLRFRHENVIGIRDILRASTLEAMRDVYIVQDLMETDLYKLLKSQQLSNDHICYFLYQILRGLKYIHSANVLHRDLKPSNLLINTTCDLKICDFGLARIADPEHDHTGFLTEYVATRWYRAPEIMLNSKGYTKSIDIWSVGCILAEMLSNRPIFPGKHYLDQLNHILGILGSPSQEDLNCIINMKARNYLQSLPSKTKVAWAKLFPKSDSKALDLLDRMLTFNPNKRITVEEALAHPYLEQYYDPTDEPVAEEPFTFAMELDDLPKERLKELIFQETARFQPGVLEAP
Outline: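 Reactions contained 0.4 nM ERK1, 0.5 μM Ulight-MBP peptide and 38.15 μM ATP in pH 7.4 Hepes/MgCl2 buffer with 4% DMSO and ran 60 minutes at room temperature. Detection used Eu-anti-p-MBP with a 665/615 nm TR-FRET ratio, normalised to DMSO and no-enzyme controls. Final concentrations were 100 nM to 0.005 nM, and IC50 came from a 4-parameter fit.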

ERK-2 kinase = target: T2, ERK-2 kinase (Homo sapiens, UniProt P28482); assay: Inhibition of ERK-2 kinase activity (LANCE Ultra TR-FRET); type: biochemical; conditions: ERK-2 enzyme 0.08 nM, ATP 38.15 μM
T2 construct: purchased Invitrogen PV3313
T2 sequence (P28482 whole entry): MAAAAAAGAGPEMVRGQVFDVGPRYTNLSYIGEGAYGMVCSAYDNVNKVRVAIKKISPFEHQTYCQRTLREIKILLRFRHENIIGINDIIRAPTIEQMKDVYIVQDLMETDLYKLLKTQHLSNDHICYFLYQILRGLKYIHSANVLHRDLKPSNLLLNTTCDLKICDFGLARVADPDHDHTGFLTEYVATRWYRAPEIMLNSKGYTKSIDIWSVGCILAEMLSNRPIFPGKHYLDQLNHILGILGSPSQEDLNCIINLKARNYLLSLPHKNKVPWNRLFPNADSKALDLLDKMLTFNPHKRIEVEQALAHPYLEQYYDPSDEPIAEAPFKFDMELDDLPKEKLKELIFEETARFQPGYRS
Outline: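 Recombinant ERK-2 (0.08 nM) with ULight-MBP peptide (0.5 μM) and ATP (38.15 μM) in Hepes pH 7.4 buffer, compound 100 nM to 0.005 nM final, 4% DMSO, 60 min at room temperature. Eu-anti-p-MBP TR-FRET (665/615 nm) read after EDTA stop; % inhibition versus DMSO and no-enzyme controls fitted 4-parameter for Abs_IC50.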

[2] = Pharmacokinetics assay in mice (oral, plasma); type: in vivo, Balb/c Mouse
Description: Balb/c Mouse was used as the test animal. The pharmacokinetic behavior of compounds of Example 1, 2 and 7 administrated orally was studied in mice (plasma).
170 g of PEG400 and 20 g of Solutol HS-15 were added to a 250 mL glass flask, and then 10 mL of NMP was added. The solution was mixed well by ultrasound for 10 minutes to obtain a clear solution.
11.2 mg of the compound of Example 1, 10.8 mg of the compound of Example 2 and 9.8 mg of the compound of Example 7 were weighted to a 4 mL glass flasks respectively, […], 2.160 mL and […] of the above solution were treated by ultrasound for 10 minutes to obtain a colorless clear solution with a concentration of 5 mg/mL.
After fasting overnight, the male Balb/c mice were administrated with the compounds (PO), the dose was 50 mg/kg, and the administration volume was 10 mL/kg.
Blood was taken before administration and at 0.25, 0.5, 1, 2, 4, 6, 8 and 24 hours after administration. The blood samples were stored in EDTA-2K tubes, and centrifuged for 6 minutes to separate the blood plasma. The plasma samples were stored at −80° C.

[3] = system: human pancreatic cancer cell MiaPaca 2 xenograft (CDX) model; assay: Tumor inhibition experiment in MiaPaca 2 xenograft model; type: in vivo, BALB/c nude mice
Description: BALB/c nude mice were used as test animals. In vivo pharmacodynamic test was carried out in human pancreatic cancer cell MiaPaca 2 xenograft (CDX) model to evaluate the antitumor effect of the test compound.
MiaPaca 2 cells were obtained from the cell bank. After recovery, the cells were added to a DMEM medium (containing 10% FBS, 1% Glu and 1% P/S), and incubated in the CO2 incubator (the incubator temperature was 37° C., and the CO2 concentration was 5%). The cells were subjected to passage after spreading 80-90% of the bottom of the culture flask. After passage, the cells were incubated in the CO2 incubator. This process was repeated until the number of cells met the required by in vivo pharmacological inoculation. Cells in log phase were collected, and counted by the automatic cell counter. The cells were re-suspended with PBS and Matrigel (1:1 by volume) based on the counting results to obtain a cell suspension (cell density: […]), which was placed in an ice box.
Female BALB/c nude mice (6-8 weeks old, body weight: 18-22 grams) were used as test animals. The mice were maintained in individually ventilated cages (5 mice per cage) in a special pathogen-free environment. All cages, padding and water were disinfected before use. All animals had free access to standard certified commercial laboratory diets. The nude mice were labeled with disposable ear tags before the experiment. The skin of the inoculated area was sterilized with 75% medical alcohol before inoculation. Each mouse was subcutaneously inoculated with 0.1 ml (containing 8*10^6 cells) of MiaPaca 2 tumor cells on the right back. Administration was started when the average tumor volume reached 100-200 mm^3. The test compound was administrated intragastrically daily. The tumor volume (mm^3) was measured with vernier caliper twice a week. Calculation formula: V=0.5*D*d*d, wherein D and d refer to the major and minor diameter of the tumor, respectively. The anti-tumor efficacy was determined by dividing the average tumor increase volume of compound-treated animals by the average tumor increase volume of untreated animals. Calculation formula of tumor inhibition rate: TGI (%)=1−[(Vt−V0)administration group/(Vt−V0)solvent control group]*100%. All animals were euthanized after the experiment.

[4] = Solubility (statement, no method); type: physicochemical
[5] = mouse, male Balb/c mice, PO 50 mg/kg, plasma
[6] = 100 mg/kg QD × 3 w, intragastric, Day 21

| IC50 (ERK-1 kinase) [nM] | IC50 (ERK-2 kinase) [nM] | Exposure in mouse plasma ([2]; dose of 50 mg/kg, oral) | Cmax [2, 5] [ng/mL] | MRT [2, 5] [h] | Tmax [2, 5] [h] | half-life [2, 5] [h] | AUC(0-t) ([2]; mouse, male Balb/c mice, PO 50 mg/kg, plasma, read-out: AUC0-24) [ng·h/mL] | Solubility compared with ERK compounds of the prior art [4] | SMILES | Solubility [1] | Tumor volume (Mean ± SD) Day 0 ([3]; 100 mg/kg QD × 3 w, intragastric, Day 0) [mm^3] | TGI Day 21 [3, 6] [%] | Tumor volume (Mean ± SD) Day 21 [3, 6] [mm^3] | ΔT/ΔC Day 21 [3, 6] [%] | Inhibition of growth of xenograft ([3]; 100 mg/kg QD, continuous oral administration for 21 days) |
| --- | --- | --- | --- | --- | --- | --- | --- | --- | --- | --- | --- | --- | --- | --- | --- |
| – | – | – | – | – | – | – | – | – | O=C1Nc2cc3[nH]nc(-c4ccncc4)c3cc2CN1Cc1ccccc1 [KO-947] | poor solubility | – | – | – | – | – |
| 0.41 | 0.18 | good exposure | 8260 | 2.33 | 1 | 0.83 | 27300 | higher solubility | C[C@@H](NC(=O)c1nc2cc3c(-c4ccncc4)n[nH]c3cc2[nH]1)c1ccc(F)cc1 [Example 7, (R)—N-(1-(4-fluorophenyl)ethyl)-3-(pyridin-4-yl)-1,7-dihydroimidazo[4,5-f]indazole-6-carboxamide] | – | 156 ± 33 | 58.3 | 426 ± 205 | 41.63 | significantly inhibit the growth |
